For data set [1], the system named is M. tuberculosis H37Rv. The data set is described as follows: Resazurin MIC assay, pan-sensitive strain. Format: cell-based. The settings on record: Mycobacterium tuberculosis, 48 h.
Data set [2] relates to M. tuberculosis H37Rv. Nature of the data set: MBC assay with H37Rv. Format: cell-based. To be noted: Mycobacterium tuberculosis, 504 h; performed with H37Rv; concentration that inhibits ≥ 99.9% of the initial bacterial inoculum; 3 weeks on 7H10 agar at 37°C. As for the experimental part:
The MBC assay with H37Rv was performed as an adjunct to the MIC assay and was used to determine the concentration of drug that is lethal to the target bacterium in vitro. A small aliquot (i.e., 10 µl) was removed from appropriate dilutions in the 96-well plate used to determine the MIC value with subsequent streaking on 7H10 agar plates. Five wells were selected, representing the well yielding the MIC value and 2 wells above and below the well that yielded the MIC value. After 3 weeks of incubation at 37°C, the agar plates were inspected for the presence or absence of growth. The MBC value is the concentration in µg/ml that inhibits ≥ 99.9% of the initial bacterial inoculum. Antimicrobials are usually regarded as bactericidal if the MBC is no more than four times the MIC. while the bacteriostatic agents have MIC values that are much lower than the MBC.

A short description of data set [3]: Precipitation noted during the MIC assay. The settings on record: observed in the MIC assay plates, 7H9 medium. The format is physicochemical. As to the method:
Stock solutions were prepared at 3.2 mg/ml which were then diluted as indicated below: 1. 20 µl of the 3.2 mg/ml stock of the test compound were added to a 96-well microtiter plate. 2. 2-fold dilutions were made by the addition of 20 µl of diluent.
3. Each dilution was further diluted 1:10 in sterile water (10 µl of dilution to 90 µl of sterile water). Note: The additional 10-fold dilution in water is required when DMSO is used as solvent to minimize toxicity to the bacteria. For uniformity in the assay procedure, this dilution step was used even if water or other solvents were used.
The following steps are followed in preparing the 96-wcll plates: • 1. 6.25 µl of each dilution were transferred to duplicate 96-well test plates. • 2. 93.75 µl of the cell suspension (∼ 10^4 bacteria) in 7H9 medium were added to the test plates. • 3. Positive, negative, sterility and resazurin controls were tested: • a. Positive controls include: appropriate antibiotics for each resistant strain and rifampicin and isoniazid for 113 7Rv • b. Negative controls include: • i. cell culture with solvent and water • i.i. cell culture only • c. Sterility controls include: • i. medium only • ii. medium with solvent and water • d. […] This control plate is needed to verify whether the compound reacts with resazurin that could possibly elicit fluorescence. • 4. […]

The mark [4] stands for this setting: Table 3, standard test strain H37Rv, read-out: MIC Value (µg/ml) H37Rv*.
The mark [5] stands for this setting: H37RV, Table 2, Resazurin MIC assay, […], read-out: MIC H37Rv.

≈ marks a conversion by molar mass, not a printed value. Where two headings read alike, the source gives them in different places.

Regarding `O=C1Nc2ccc(OC(F)(F)F)cc2C1=NNC(=O)c1ccc([N+](=O)[O-])o1` [Compound 3e], the MIC with M. tuberculosis H37Rv [1] (setting [4]) and in the data set on M. tuberculosis H37Rv [1] (setting [5]) was 2.5 µg/mL (≈ 6.51 µM) in each case. In the data set with M. tuberculosis H37Rv [2], this molecule gave an MBC of 2.5 µg/mL (≈ 6.51 µM).
On to `NNC(=O)c1ccncc1` [Isoniazid, reference compound], for which the MIC in the data set with M. tuberculosis H37Rv [1] (setting [4]) and with M. tuberculosis H37Rv [1] (setting [5]) was 0.063 µg/mL (≈ 0.459 µM) in each case.
As to `O=C(NN=C1C(=O)N(Cc2ccccc2)c2ccc(Cl)cc21)c1ccc([N+](=O)[O-])o1` [Compound 3h], the MIC with M. tuberculosis H37Rv [1] (setting [5]) came to 0.312 µg/mL (≈ 0.734 µM).
As for `O=C1Nc2ccc([N+](=O)[O-])cc2C1=NNC(=O)c1ccncc1` [Compound 3c], the MIC in the data set with M. tuberculosis H37Rv [1] (setting [4]) and in the data set on M. tuberculosis H37Rv [1] (setting [5]) was 0.156 µg/mL (≈ 0.501 µM) in each case. This molecule gave an MBC against M. tuberculosis H37Rv [2] of 0.31 µg/mL (≈ 0.996 µM).
For `O=C(NN=C1C(=O)N(Cc2ccccc2)c2ccccc21)c1ccc([N+](=O)[O-])o1` [Compound 3g], in data set [3], the “Comments (precipitation)” value was “Precipitation observed at 10 µg/ml”. For the same molecule, the MIC with M. tuberculosis H37Rv [1] (setting [4]) and in the data set on M. tuberculosis H37Rv [1] (setting [5]) was 0.156 µg/mL (≈ 0.4 µM) each time. In the data set on M. tuberculosis H37Rv [2], this molecule gave an MBC of 0.156 µg/mL (≈ 0.4 µM).
In the case of `CO[C@H]1/C=C/O[C@@]2(C)Oc3c(C)c(O)c4c(O)c(c(/C=N/N5CCN(C)CC5)c(O)c4c3C2=O)NC(=O)/C(C)=C\C=C\[C@H](C)[C@H](O)[C@@H](C)[C@@H](O)[C@@H](C)[C@H](OC(C)=O)[C@@H]1C` [Rifampin, reference compound], the figures for the MIC with M. tuberculosis H37Rv [1] (setting [4]) and with M. tuberculosis H37Rv [1] (setting [5]) were 0.0125 µg/mL (≈ 0.0152 µM) and 0.0031 µg/mL (≈ 0.00377 µM), respectively.
For the molecule `O=C1Nc2ccc(F)cc2C1=NNC(=O)c1ccc([N+](=O)[O-])o1` [Compound 3d], the MIC in the data set with M. tuberculosis H37Rv [1] (setting [5]) came out at 5 µg/mL (≈ 15.7 µM).
For the molecule `O=C1Nc2ccc(F)cc2C1=NNC(=O)c1ccncc1` [Compound 3b, reference compound], the MIC with M. tuberculosis H37Rv [1] (setting [5]) is 10 µg/mL (≈ 35.2 µM).
In the case of `O=C1Nc2ccc(Cl)cc2C1=NNC(=O)c1ccncc1` [Compound 3a], the “Comments (precipitation)” value in data set [3] is “Precipitation observed at 10 µg/ml”. The MIC in the data set with M. tuberculosis H37Rv [1] (setting [4]) and in the data set on M. tuberculosis H37Rv [1] (setting [5]) was 1.25 µg/mL (≈ 4.16 µM) throughout. The same molecule yielded a minimal bactericidal concentration (MBC) against M. tuberculosis H37Rv [2] of 1.25 µg/mL (≈ 4.16 µM).
Consider `O=C(NN=C1C(=O)N(c2ccccc2)c2ccccc21)c1ccc([N+](=O)[O-])o1` [Compound 3f], for which the MIC in the data set with M. tuberculosis H37Rv [1] (setting [5]) came to 5 µg/mL (≈ 13.3 µM).
Turning to `Cc1ccc2c(c1)C(=NNC(=O)c1ccc([N+](=O)[O-])o1)C(=O)N2Cc1ccccc1` [Compound 3j], in the data set on M. tuberculosis H37Rv [1] (setting [5]), the MIC is 1.25 µg/mL (≈ 3.09 µM).
On the same count and under the same terms, next, `O=C(NN=C1C(=O)N(Cc2ccccc2)c2ccc(F)cc21)c1ccc([N+](=O)[O-])o1` [Compound 3i]: 0.156 µg/mL (≈ 0.382 µM).
